# Reference: patent US8481459B2, “Chemical inhibitors of ethylene biosynthesis” (Academia Sinica, priority 2010, dated 2013)
# Test system: gene expression in etiolated eto1-4 seedlings
# Experiment: Transcriptional profiling (ATH1 GeneChip microarray) of etiolated eto1-4 seedlings
# Assay type: in vivo, Arabidopsis thaliana
# Conditions: ratio eto1-4 treated to eto1-4 (no treatment)
# Description: For chemical treatments, seeds were sown on 0.5×MS agar medium supplemented with 10 μM chemicals (AVG, compounds 9393, 9370, and 7303) or DMSO (as control). Arabidopsis seeds were stratified in the dark at 4° C. for 4 days, then germinated in the dark for 3 days at 22° C. Approximately 2,000 etiolated seedlings of the wild type or eto1-4 were used to collect tissues for preparation of total RNA in each microarray experiment with Arabidopsis ATH1 GeneChip (Affymetrix). Extraction of RNA followed an established protocol (Chang, et al. (1993) Plant Mol. Biol. Rep. 11, 113-117). Total RNA (10 μg) was used to prepare biotinylated cRNA for hybridization to ATH1 GeneChip in the experiments disclosed herein. Experiments were repeated by 2 independent biological duplicates, and candidate genes present in both experiments were selected for further analysis. The MASS method was used for data analysis and normalization by all sample medium. Candidate genes were selected by the following criteria. First, genes with 1.5-fold differential expression between the wild type and eto1-4 were selected as the master gene pool, which was then used for comparison in treatments with AVG and individual exemplary compounds. Data were presented in hierarchical clustering and Venn diagram format. Agilent GeneSpring GX and Bioconductor software were used to analyze the expression profile data. Gene Ontology descriptions were generated by GeneSpring GX and further referred to the TAR GO database. Raw data are available in the GEO database (http://www.ncbi.nlm.nih.gov/geo) with Accession no. GSE20897.
# The filtered and normalized expression data set from 22810 probes on the ATH1 Genechip was used for hierarchical clustering of gene expression profiles for comparison between AVG and the exemplary invention compounds in eto1-4. It was identified that 1,446 genes show at least 1.5-fold difference in expression between the WT and eto1-4 and used them as the master gene pool for clustering analysis (FIG. 7A). […] These genes likely contribute to the etiolated phenotype of eto1-4 by responding to elevated endogenous ethylene. To determine whether the exemplary compounds have specific r overlapping functions with AVG to suppress the eto1-4 phenotype, genes that are regulated by individual exemplary invention compounds and AVG for Venn diagram analysis were clustered (FIG. 7B). More than 63% of genes (356/561 for compound 9393; 389/561 for compound 9370; 399/561 for compound 7303; FIG. 7B) with expression associated with AVG were co-regulated by the exemplary invention compounds, which indicates an overlap function in suppression of the ethylene phenotype in eto1-4. […] Next genes co-regulated by all of the exemplary invention compounds and AVG were examined by performing a clustering analysis using the co-regulated genes identified in FIG. 7B: 356 (compound 9393 vs AVG), 389 (compound 9370 vs AVG) and 399 genes (compound 7303 vs AVG). It was uncovered that 276 genes were co-regulated by all of the exemplary invention compounds and AVG (FIG. 7C and Table 2). On the basis of GO descriptions generated by Gene Spring GX and TAIR database, the 276 genes were divided into subgroups related to their biological functions (Table 2). […] In addition, stress- and pathogenesis-related genes were among the co-regulated genes, possibly because ethylene is involved in both biotic and abiotic stresses.
# Genes (1446 non-redundant loci) were selected by 1.5-fold differential expression between eto1-4 and WT as the master pool for analysis. These genes were used for comparison between chemical treatments by AVG and the exemplary invention compounds. The finalized 276 genes that are co-regulated by AVG and all of the exemplary invention compounds are shown. Locus ID also present in Nemhauser et al. (Nemhauser, et al. (2006) Cell 126, 467-475).
structure (smiles),measurement,value
Cc1ccc(C2CC(=O)c3cnc(NC4CCCC4)nc3C2)cc1 (centres unmarked) [Compound 9370],"Signal Fold Change AT3G14850, unknown biological function",0.20
same,Signal Fold Change AT3G15890 protein kinase,1.86
same,Signal Fold Change AT3G16450 jacalin lectin protein,2.54
same,Signal Fold Change AT3G16470 jacalin lectin protein,5.60
same,"Signal Fold Change AT3G16690, unknown biological function",3.80
same,"Signal Fold Change AT3G17680, unknown biological function",0.24
same,Signal Fold Change AT3G20130 cytochrome P450,1.73
same,Signal Fold Change AT3G21770 peroxidase 30,2.01
same,Signal Fold Change AT3G22620 lipid transfer protein,2.14
same,"Signal Fold Change AT3G23150 ethylene receptor, putative (ETR2)",0.16
same,"Signal Fold Change AT3G23800, unknown biological function",0.40
same,"Signal Fold Change AT3G24670, unknown biological function",0.32
same,Signal Fold Change AT3G25710 bHLH protein,2.47
same,Signal Fold Change AT3G25730 AP2-containing transcription factor,0.30
same,Signal Fold Change AT3G25980 mitotic spindle checkpoint protein,2.23
same,Signal Fold Change AT3G27580 protein kinase,0.56
same,"Signal Fold Change AT3G28290, unknown biological function",0.18
same,Signal Fold Change AT3G29250 short-chain dehydrogenase,5.52
same,"Signal Fold Change AT3G30775 proline oxidase, mitochondrial",3.13
same,Signal Fold Change AT3G43270 pectinesterase protein,0.20
same,"Signal Fold Change AT3G44820, response to light stimulus, phototropic-responsive NPH3 protein",2.56
same,Signal Fold Change AT3G44990 endo-xyloglucan transferase,0.22
same,Signal Fold Change AT3G45710 proton-dependent oligopeptide transport (POT) protein,2.40
same,Signal Fold Change AT3G46130 myb transcription factor (MYB48),2.15
same,Signal Fold Change AT3G46700 UDP-glucosyl transferase,5.15
same,"Signal Fold Change AT3G47210, unknown biological function",2.73
same,"Signal Fold Change AT3G47250, unknown biological function",4.89
same,Signal Fold Change AT3G49780 phytosulfokines 3 (PSK3),7.46
same,Signal Fold Change AT3G50660 steroid 22-alpha-hydroxylase,4.00
same,"Signal Fold Change AT3G51410, unknown biological function",0.32
same,"Signal Fold Change AT3G51970, unknown biological function",2.88
same,Signal Fold Change AT3G52180 protein tyrosine phosphatase,0.25
same,Signal Fold Change AT3G52920 expressed protein (defense response),2.82
same,"Signal Fold Change AT3G53540, unknown biological function",0.35
same,"Signal Fold Change AT3G56480, unknown biological function",2.39
same,Signal Fold Change AT3G58710 WRKY transcription factor,2.65
same,"Signal Fold Change AT3G59370, unknown biological function",2.99
same,Signal Fold Change AT3G59710 short-chain dehydrogenase,0.38
same,"Signal Fold Change AT3G59900, unknown biological function",0.39
same,"Signal Fold Change AT3G60520, unknown biological function",0.28
same,Signal Fold Change AT3G61160 shaggy-related protein kinase beta/ASK-beta (ASK2),3.86
same,Signal Fold Change AT4G00730 anthocyaninless2,0.54
same,"Signal Fold Change AT4G01410, unknown biological function",0.27
same,Signal Fold Change AT4G03140 short-chain dehydrogenase,0.38
same,"Signal Fold Change AT4G08300, unknown biological function",3.20
same,Signal Fold Change AT4G09570 calcium-dependent protein kinase,0.35
same,"Signal Fold Change AT4G10910, unknown biological function",4.65
same,Signal Fold Change AT4G11190 disease resistance-responsive protein,9.98
same,Signal Fold Change AT4G11280 ACC synthase 6,2.29
same,Signal Fold Change AT4G11310 cysteine proteinase,9.04
same,"Signal Fold Change AT4G12080, unknown biological function",2.05
same,Signal Fold Change AT4G12410 auxin-responsive protein,2.89
same,Signal Fold Change AT4G12480 lipid transfer protein,0.17
same,"Signal Fold Change AT4G13210, unknown biological function",0.25
same,Signal Fold Change AT4G15550 UDP-glucose:indole-3-acetate beta-D-glucosyltransferase,0.28
same,"Signal Fold Change AT4G15920, unknown biological function",17.08
same,Signal Fold Change AT4G17220 expressed protein (cytoskeleton organization and biogenesis),2.35
same,Signal Fold Change AT4G18340 glycosyl hydrolase,2.70
same,Signal Fold Change AT4G23410 senescence-associated protein,2.34
same,"Signal Fold Change AT4G25780, unknown biological function",11.52
same,Signal Fold Change AT4G26010 peroxidase,0.38
same,"Signal Fold Change AT4G28085, unknown biological function",4.84
same,"Signal Fold Change AT4G31000, unknown biological function",0.61
same,"Signal Fold Change AT4G32920, unknown biological function",2.35
same,"Signal Fold Change AT4G34560, unknown biological function",1.85
same,Signal Fold Change AT4G34760 auxin-responsive protein,0.15
same,Signal Fold Change AT4G35060 copper chaperone,3.80
same,"Signal Fold Change AT4G35150, unknown biological function",0.28
same,"Signal Fold Change AT4G36520, unknown biological function",2.70
same,Signal Fold Change AT4G37220 stress-responsive protein,6.12
same,"Signal Fold Change AT4G38690, signal transduction, 1-phosphatidylinositol",3.04
same,Signal Fold Change AT4G39210 ADP-glucose pyrophosphorylase,0.28
same,Signal Fold Change AT4G39800 inositol-3-phosphate synthase isozyme 1,2.08
same,"Signal Fold Change AT4G39840, unknown biological function",0.29
same,"Signal Fold Change AT5G01210, unknown biological function",0.31
same,"Signal Fold Change AT5G01300, unknown biological function",1.40
same,"Signal Fold Change AT5G02260, cell wall organization and biogenesis, expansin (EXP9)",0.10
same,Signal Fold Change AT5G02540 short-chain dehydrogenase,0.12
same,Signal Fold Change AT5G03160 DNAJ heat shock N-terminal domain-containing protein,2.78
same,"Signal Fold Change AT5G04080, unknown biological function",2.55
same,"Signal Fold Change AT5G05180, unknown biological function",1.95
same,"Signal Fold Change AT5G06200, unknown biological function",2.10
same,"Signal Fold Change AT5G08240, unknown biological function",2.31
same,Signal Fold Change AT5G08260 serine carboxypeptidase S10 protein,0.38
same,Signal Fold Change AT5G08370 alpha-galactosidase,4.06
same,Signal Fold Change AT5G09980 expressed protein (defense response),0.38
same,Signal Fold Change AT5G10720 sensory transduction histidine kinase,0.32
same,"Signal Fold Change AT5G11540, unknown biological function",5.68
same,"Signal Fold Change AT5G12170, response to cadmium ion, expressed protein",0.34
same,Signal Fold Change AT5G13870 endo-xyloglucan transferase,0.11
same,Signal Fold Change AT5G13910 AP2/EREBP-like transcription factor,0.39
same,Signal Fold Change AT5G14780 formate dehydrogenase,0.35
same,Signal Fold Change AT5G14920 gibberellin-regulated protein,0.31
same,"Signal Fold Change AT5G15290, unknown biological function",2.42
same,Signal Fold Change AT5G15530 biotin carboxyl carrier protein 2,0.38
same,Signal Fold Change AT5G15830 bZIP transcription factor protein,4.18
same,"Signal Fold Change AT5G18470, unknown biological function",0.18
same,Signal Fold Change AT5G18670 beta-amylase,0.40
same,"Signal Fold Change AT5G18860, unknown biological function",2.08
same,"Signal Fold Change AT5G18970, unknown biological function",3.58
same,Signal Fold Change AT5G19890 peroxidase,0.08
same,"Signal Fold Change AT5G19930, unknown biological function",1.64
same,Signal Fold Change AT5G20410 monogalactosyldiacylglycerol synthase,3.75
same,"Signal Fold Change AT5G22310, unknown biological function",0.31
same,Signal Fold Change AT5G22860 serine carboxypeptidase S28 protein,3.54
same,"Signal Fold Change AT5G23750, unknown biological function",4.16
same,"Signal Fold Change AT5G24870, unknown biological function",2.17
same,Signal Fold Change AT5G25140 cytochrome P450,5.04
same,Signal Fold Change AT5G25160 zinc finger (C2H2 type) protein,3.03
same,Signal Fold Change AT5G25190 ethylene-responsive element-binding protein,0.40
same,"Signal Fold Change AT5G34940, unknown biological function",0.46
same,"Signal Fold Change AT5G37300, unknown biological function",3.03
same,"Signal Fold Change AT5G38930, unknown biological function",0.24
same,Signal Fold Change AT5G39860 bHLH protein,3.46
same,Signal Fold Change AT5G41900 hydrolase,3.08
same,"Signal Fold Change AT5G44410, unknown biological function",3.27
same,"Signal Fold Change AT5G44580, unknown biological function",0.21
same,Signal Fold Change AT5G46890 lipid transfer protein,3.94
same,"Signal Fold Change AT5G47240, unknown biological function",4.32
same,Signal Fold Change AT5G47330 palmitoyl protein thioesterase protein,3.02
same,Signal Fold Change AT5G47450 major intrinsic protein,2.71
same,"Signal Fold Change AT5G47950, unknown biological function",2.55
same,Signal Fold Change AT5G48490 lipid transfer protein,12.97
same,"Signal Fold Change AT5G48900, unknown biological function",0.48
same,"Signal Fold Change AT5G49900, unknown biological function",2.96
same,Signal Fold Change AT5G50720 ABA-responsive protein (HVA22e),2.65
same,Signal Fold Change AT5G52120 SKP1 interacting partner 3 protein,7.26
same,"Signal Fold Change AT5G53190, unknown biological function",6.92
same,"Signal Fold Change AT5G53830, unknown biological function",0.39
same,"Signal Fold Change AT5G56320, cell wall organization and biogenesis, expansin (EXP14)",2.90
same,"Signal Fold Change AT5G58660, unknown biological function",0.27
same,Signal Fold Change AT5G59540 oxidoreductase,0.40
same,Signal Fold Change AT5G63450 cytochrome P450,8.71
same,Signal Fold Change AT5G63650 serine/threonine protein kinase,0.33
same,Signal Fold Change AT5G65970 seven transmembrane MLO protein,2.88
same,"Signal Fold Change AT5G66310, microtubule-based movement, kinesin motor protein",0.45
same,Signal Fold Change AT5G66400 dehydrin (RAB18),0.81
same,"Signal Fold Change AT5G66440, unknown biological function",0.31
same,Signal Fold Change AT5G66460 (1-4)-beta-mannan endohydrolase,0.42
same,"Signal Fold Change AT5G66780, unknown biological function",0.86
